Reference: patent US20150150892A1, “METHODS AND PRODUCTS RELATED TO LUNG CANCER” (Massachusetts Institute of Technology, priority 2012, published 2015)

Experiments:
NF-κB target genes = assay: Quantitative PCR of NF-κB target genes in KP cells; assay type: cell-based, mouse
Description: (§1) FIG. 1. Bortezomib inhibits NF-κB signaling and induces apoptosis in murine lung adenocarcinoma cell lines. (1A) reduction of nuclear p65 level by bortezomib. Two KP (KrasLSL-G12D/wt;p53flox/flox) cell lines (KP1 and KP2) were treated with 5 nM bortezomib (BZ) or vehicle control (ctrl) for 24 hours. Nuclear (N) and cytoplasmic (C) fractions of protein lysates were immunoblotted with the indicated antibodies. NEMO and Parp serve as cytoplasmic and nuclear loading controls, respectively. (1B) quantitative PCR analysis of a subset of NF-κB target genes in 5 nM bortezomib (BZ)-treated KP cells at the indicated time points. Vehicle control is set to 1. (1C) apoptosis in KP and KP^M (KrasLSL-G12D/wt;p53R127H/−) cells induced by bortezomib. Cells were pre-treated with 5 nM bortezomib for 24 hours, and protein lysates were immunoblotted with CC3 and tubulin antibodies. (1D) quantification of cell death in bortezomib-treated cells. Cells were treated with the indicated concentrations of bortezomib for 24 hours, and dead cells were quantified by Trypan blue staining. Error bars are SD (n=3).
FIG. 7: The NF-κB inhibitor Bay-117082 leads to lung tumor regression in vivo. (7A) quantitative PCR analysis of NF-κB target gene expression in KP cells treated with 10 μM Bay-117082 for indicated hours. Error bars are SD (n=3). (7B) Bay-117082 treatment leads to lung tumor regression and delays tumor progression in the orthotopic lung tumor model. A total of 50,000 luciferase-tagged KP cells were transplanted into recipient mice (n=6), and treatment was started at 19 days after transplantation (set at D0). Mice were treated with vehicle control or 10 mg/kg Bay-117082 by i.p. injection, and imaged at the indicated time points. Arrows indicate Bay-117082 injections. (7C) Bay-117082 prolongs survival in the KP model (n=6; P=0.008). “i.p. dosing” indicates treatment with 3 doses per week.
(§2) RNA was purified using TRIzol (Invitrogen), according to the manufacturer's instructions. One microgram of RNA was reverse transcribed using the High-Capacity cDNA Reverse Transcription Kit (Applied Biosystems). Real-time PCR (quantitative PCR) amplification was performed using Taqman probes (Applied Biosystems). Data were normalized to the Gapdh (mouse) or GAPDH (human) levels.

KP and KP^M cells [1] = assay: Cleaved caspase 3 (CC3) immunoblot in lung adenocarcinoma cells; assay type: cell-based, mouse; conditions: 5 nM bortezomib, 24 hours, KP and KP^M cells
Description: as §1
FIG. 17: Bay-117082 induces cell death In KP cells. […] (17B) Bay-117082 induces apoptosis in KP cells. Cells were treated with 10IJM Bay-117082 for 48 hours. Protein lysates were immunoblotted with cleaved caspase 3 (CC3) and Tubulin antibodies.
Cell pellets were lysed in Laemmli buffer. […]

[2] = test system: NF-κB target genes regulating apoptosis and survival; assay: QPCR of NF-κB targets in Bortezomib-resistant KP cell line; assay type: cell-based, mouse; conditions: 5 nM Bortezomib, 24 hours
Description: A representative resistant cell line was treated with control or 5 nM Bortezomib for 24 hours. Gene expression level was measured by QPCR and normalized to control-treated cells (set to 1). Error bars are s.d. (n=3).
as §2

[3] = test system: KP lung cancer cells in NCR nu/nu mice; assay: Subcutaneous tumor model, caliper tumor volume; conditions: KP cells s.c. in immunocompromised mice
Description: 1×10^6 KP lung cancer cells were injected subcutaneously into NCR nu/nu mice. Tumor volume was quantified by caliper measurements. Treatments started when tumors reached −100 mm^3 (set to 1 in tumor volume axis and 0 days in time axis). Arrows indicate Bortezomib (1 mg/kg) or Cisplatin (7 mg/kg) injections. Error bars are s.d (n=4).
To compare the efficacy of bortezomib to that of other lung cancer therapies, we injected KP lung tumor cells s.c. into immunocompromised mice, allowed tumors to form, and then treated the mice with bortezomib.

[4] = human, in vivo; cited from earlier work
KP and KP^M cells [5] = assay: Trypan blue quantification of cell death; assay type: cell-based, mouse; conditions: 24 hours, indicated concentrations
Description: as §1
As the NF-κB pathway is known to inhibit apoptosis through its regulation of antiapoptotic genes, we next addressed the cytotoxicity of bortezomib in vitro (6).

KP and KP^M cell lines = assay: Cell viability assay (Cell Titer Aqueous Kit); assay type: cell-based, mouse; conditions: increasing doses, 24 hours, KP and KP^M vs 3TZ and LKR13 cells
Description: FIG. 2: Bortezomib sensitivity correlates with basal NF-κB activity in KP lung adenocarcinoma cell lines. […] 3TZ, diamond; LKR13, triangle; KP, solid lines; KPM, dashed lines. Error bars are SD (n=3). (2B) lung cancer cell lines with high basal NF-κB activity were sensitive to bortezomib. NF-κB p65 DNA-binding activity was determined by ELISA from nuclear extracts of KP cell lines and LKR13 cells (set as 1). Relative viability was measured after 5 nM bortezomib treatment, as in 2A. FIG. 17: Bay-117082 induces cell death In KP cells. […] (17B) Bay-117082 induces apoptosis in KP cells. Cells were treated with 10IJM Bay-117082 for 48 hours. […] Cell culture conditions were as described recently (30).

[6] = test system: NF-κB target genes in H2122 and H2009 cell lines; assay: QPCR of NF-κB target genes in human NSCLC cell lines; assay type: cell-based; conditions: 10 nM Bortezomib, 24 hours
Description: FIG. 8: Bortezomib inhibits NF-κB signaling in human NSCLC cells. H2122 (KRASG12C;TP53c176F/Q16L) (8A) and H2009 (KRASG12A;TP53R273L) (8B) cell lines were treated with vehicle control or 10 nM Bortezomib for 24 hours. NF-κB target gene expression was measured by QPCR. Error bars are s.d. (n=3). N.D. denotes not detectable. Mutation information is from the Sanger COSMIC database.
as §2

[7] = 5 nM bortezomib, time course, KP cells

SMILES: CC(C)C[C@H](NC(=O)[C@H](Cc1ccccc1)NC(=O)c1cnccn1)B(O)O [bortezomib, N-(2-pyrazine) carbonyl-L-phenylalanine-L-leucine boronic acid]
- I16 mRNA level (NF-κB target genes; 5 nM bortezomib, KP cells): increased
- expression of inflammation NF-κB targets I16, Tnf, Mmp3 (NF-κB target genes; [7]): not reduced
- expression of proliferation related NF-κB target genes c-Myc and Cyclin D1 (NF-κB target genes; [7]): reduced expression
- expression of NF-κB-regulated antiapoptosis genes Bcl2, Bclx1, Birc2 (cIAP1), Birc5 (Survivin) (NF-κB target genes; 5 nM bortezomib, time course, KP cells, real-time PCR): consistently downregulated
- Bcl2 and Myc inhibition, bortezomib compared with Bay-117082 (NF-κB target genes; KP cells in vitro, FIG. 1B and FIG. 7A): more robust
- cleaved caspase 3 (CC3) (KP and KP^M cells [1]): increased cleaved caspase 3
- NF-κB target genes regulating apoptosis and survival [2]: robust downregulation
- tumor volume, short term ([3]; Bortezomib 1 mg/kg): markedly reduced tumor volumes
- tumor progression ([3]; Bortezomib 1 mg/kg or Cisplatin 7 mg/kg): diminished tumor progression to a similar extent as cisplatin
- side effects in the clinic [4]: manageable side effects
- cell death by Trypan blue counting (KP and KP^M cells [5]): caused cell death in a dose-dependent manner
- sensitivity in cell viability dose-response (KP and KP^M cell lines): higher sensitivity
- expression of NF-κB target genes MYC, BCL2, XIAP [6]: downregulated
